Counter-ions that a name gives are not always drawn. Like-named read-outs stand apart in the source and are kept apart here.
Tests used:
[1] = cited from earlier work
[2] = tested on: infiltrating immune cells at the injection site; settings: subcutaneous, 24 h
Procedure: (§1) Female Balb/C mice (6-8-week-old) were purchased from Charles River Laboratories. All experiments were performed according to the approved protocols by the Institutional Animal Care and Use Committee (IACUC) of the Faculty of Arts and Sciences (FAS), Harvard University, Cambridge.
Balb/c mice were subcutaneously injected in the back with 50 μL of saline, CoLa or alum (n=4 for all groups). […] Undigested tissue was removed by 70 μm mesh filtration. The suspension was centrifuged at 400×g for 10 min. The supernatant was removed via pipetting and 2 mL ACK lysing buffer (Thermo Fisher) was added to the pellet. After 5 min the suspensions were centrifuged again and resuspended with 2 mL FCS blocking buffer.

immune response to OVA = tested on: immune response to OVA
Procedure: as §1
Balb/c mice were subcutaneously injected in the back with 50 μL of OVA-saline, OVA-CoLa or alum (n=8 for all groups). A total of three injections were given on day 0, day 7 and day 14. On day 19, the mice were euthanized, blood and spleen were collected for further analysis.
Blood was centrifuged at 5000 rpm for 10 minutes at 4° C. to separate the serum from the cells. Anti-OVA IgG titer was measured as previously described^13.

OVA [3] = target: T1, OVA (Gallus gallus, UniProt P01012); settings: 10% w/v CoLa in saline, compared to alum
Procedure: For the CoLa adjuvant formulation, 10% w/v CoLa was added unless specified. Adsorbed OVA was quantified using a plate reader (Spectramax i3™)

OVA [4] = target: T1, OVA
Procedure: OVA containing solutions (0.5 mg mL-1) and complete medium (DMEM+10% FBS) were mixed to a total volume of 500 μL and incubated at 37° C. on a tube revolver. At regular time points, the suspensions were centrifuged at 12 000×g for 15 min and the supernatant was collected for analysis. The pellet was further resuspended in 400 μL fresh release media and incubated until the next time point.

OVA [5] = target: T1, OVA; remark: listed apart in the source
Procedure: An SDS-PAGE assay was carried out to assess OVA aggregation from the OVA-CoLa or alum samples. 1 mg mL-1 OVA in 10% v/v CoLa or 2% alum were incubated for 1 h at room temperature (25° C.). OVA in saline was used as a negative control. […] Before electrophoresis, all samples were centrifuged at 5000×g for 5 min to discard any undissolved residue and the clear supernatants were adjusted to equivalent protein concentration. […] The protein bands were stained with Bio-Safe Coomassie stain (BioRad) for observation according to the manufacturer's protocol. Circular dichroism spectrophotometry (Jasco J-1500, Easton) was performed in the far-UV region (190-250 nm) to collect spectra. The three OVA (0.5 mg mL-1) containing formulations were centrifuged for 10 min at 10,000×g. The supernatant was removed via pipetting, while the soft OVA pellet at the bottom of the tube was not disturbed. The pellet was washed with 1 mL PBS and centrifuged again to remove the supernatant. The washing/centrifugation steps were repeated until no OVA pellet was formed during centrifugation. Rectangular quartz cells with a 1 mm path length (1-Q-1) were loaded with 400 μL of a sample. As a control spectrum, OVA in PBS was used. Each spectrum was the average of three scans.

T1 sequence (P01012 whole entry): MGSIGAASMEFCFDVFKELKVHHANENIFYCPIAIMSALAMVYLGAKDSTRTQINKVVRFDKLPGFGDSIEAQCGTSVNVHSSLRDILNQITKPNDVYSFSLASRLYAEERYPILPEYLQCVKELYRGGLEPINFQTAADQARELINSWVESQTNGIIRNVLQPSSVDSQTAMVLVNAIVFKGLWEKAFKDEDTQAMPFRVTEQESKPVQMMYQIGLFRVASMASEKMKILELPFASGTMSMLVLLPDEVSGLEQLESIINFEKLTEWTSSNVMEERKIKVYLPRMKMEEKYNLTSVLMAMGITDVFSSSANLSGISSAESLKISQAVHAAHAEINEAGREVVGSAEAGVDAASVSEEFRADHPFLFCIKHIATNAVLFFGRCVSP

## CC(C)C(=O)O [Isoburtyric acid]
[1]; exemplary anions
  LogP: 0.94

## O=C(O)/C=C\C(=O)O [Maleic acid]
[1]; exemplary anions
  LogP: −0.48

## O=P(O)(O)Oc1ccccc1 [Phenylphosphoric acid]
[1]; exemplary anions
  LogP: 1.05

## O=C(O)CO [Glycolic acid]
[1]; exemplary anions
  LogP: −1.11

## CC(O)C(=O)O.CC(O)C(=O)[O-].C[N+](C)(C)CCO [CoLa, Choline lactate (1:2)]
[2]
  infiltrating CD8 cells: no such effect
[2]; compared to the controls
  CD86 (activation marker) on infiltrating dendritic cells: significant increase
  increase in infiltration of CD4 cells: ~25%
[2]; compared to untreated and alum-treated mice
  higher infiltration of dendritic cells: 20%
Immune response to OVA; compared to alum
  Th2 response, as assessed by anti-OVA IgG: non-significant Th2 response
Immune response to OVA; injections day 0, 7, 14, analysis day 19
  Th1 response: strong Th1 response
Immune response to OVA; spleen, CoLa versus alum
  activated dendritic cells (CD80): significantly higher
Immune response to OVA; spleen, compared to alum
  increase in IFN-γ+CD4 cells: ~3 fold
Immune response to OVA; spleen, compared to both the other groups
  increase in the number of CD4 cells: 50%
Immune response to OVA; spleen, compared to the controls
  increase in the CD8 cells: 5 fold
Immune response to OVA; spleen, compared to the saline group
  increase in natural killer (NK) cells: ~1.8 fold
OVA [3]
  OVA adsorption on adjuvant: lower adsorption
OVA [4]; 10% w/v CoLa in saline, DMEM+10% FBS, 37° C.
  time over which adsorbed OVA was released: 24 h
OVA [4]; compared to alum
  release of adsorbed OVA: faster release
OVA [5]
  secondary structure of OVA (CD analysis): preserved
OVA [5]; similar to alum and saline
  molecular integrity of adsorbed OVA (SDS-PAGE): maintained the molecular integrity

## O=C(O)c1cccc(-c2ccccc2)c1 [Biphenyl-3-carboxylic acid]
[1]; exemplary anions
  LogP: 3.5

## O=C(O)[C@H](O)[C@@H](O)[C@H](O)[C@H](O)CO [Gluconic acid]
[1]; exemplary anions
  LogP: −3.4

## CCCCC(CC)COS(=O)(=O)O (stereo not drawn) [2-Ethylhexyl sulfate]
[1]
  LogP: 3.10

## O=C(O)CCc1ccccc1 [Hydrocinnamic acid]
[1]; exemplary anions
  LogP: 1.84

## O=S(=O)(O)c1ccc(O)cc1 [4-hydroxybenzenesulfonic acid]
[1]; exemplary anions
  LogP: 0.2

## CCC(=O)O [Propanoic acid]
[1]; exemplary anions
  LogP: 0.33

## CC(C)=CC(=O)O [3,3-dimethylacrylic acid]
[1]
  LogP: 1.2
